# Assay results reported in patent US20160296499A1, “Spiroindoline Antiparasitic Derivatives” (ZOETIS SERVICES LLC, priority 2013, published 2016).
# Read-outs that look alike come from different tables or passages of the source.
# Key:
# Haemonchus contortus L3 = test: Haemonchus contortus, Larvae Stage 3 (HcL3) In Vitro Assay; settings: Haemonchus contortus
# [1] = test system: Dirofilaria immitis microfilariae; test: Dirofilaria immitis, Microfilariae (DiMF) In Vitro Assay; settings: Dirofilaria immitis
# [2] = biological target: T1, bovine vesicular acetylcholine transporter (VAChT) (Bos taurus, UniProt E1BK36); test: Radioligand Binding Assay; settings: Bovine binding Ki, CHO-K1 membranes with recombinant bovine VAChT, [3H]Compound X6 0.3 nM
# T1 sequence (E1BK36 1-524): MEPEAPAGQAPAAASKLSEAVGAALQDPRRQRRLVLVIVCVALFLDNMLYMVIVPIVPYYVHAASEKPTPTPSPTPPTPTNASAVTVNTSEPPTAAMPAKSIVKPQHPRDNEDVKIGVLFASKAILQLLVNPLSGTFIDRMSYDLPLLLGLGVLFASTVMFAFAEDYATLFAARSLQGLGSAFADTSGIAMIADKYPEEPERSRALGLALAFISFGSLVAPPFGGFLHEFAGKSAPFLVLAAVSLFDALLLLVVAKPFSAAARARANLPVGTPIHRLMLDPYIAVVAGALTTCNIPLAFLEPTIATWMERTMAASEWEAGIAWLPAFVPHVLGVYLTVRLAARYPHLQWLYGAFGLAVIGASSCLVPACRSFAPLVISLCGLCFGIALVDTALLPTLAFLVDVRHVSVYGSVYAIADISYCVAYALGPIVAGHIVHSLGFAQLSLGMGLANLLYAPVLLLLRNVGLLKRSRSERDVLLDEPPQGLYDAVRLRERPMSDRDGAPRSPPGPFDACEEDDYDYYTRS
# [3] = 96 h, read-out: HcL3 MEC, Minimal Effective Concentration whereby worm motility is inhibited by approximately 70%, 37° C., tested 0.001-100 μM
# [4] = 72 h, read-out: Di MF, MEC, decrease in microfilariae motility by visual assessment, curve starting at 100 μM
# [5] = 96 hours, 37° C., read-out: HcL3 MEC
Compound,minimal effective concentration (Haemonchus contortus L3; [3]) [µM],"minimal effective concentration [1, 4] [µM]",Ki [2] [nM],minimal effective concentration (Haemonchus contortus L3; [5]) [µM],"minimal effective concentration ([1]; 72 hours, read-out: Di MF) [µM]"
"N#Cc1ccc(/C=C/CN2CCC3(CC2)CN(C(=O)NCc2ccnc(C(F)(F)F)c2)c2ccc(OC(F)(F)F)cc23)cc1 [Example 176, (E)-1′-(3-(4-cyanophenyl)allyl)-5-(trifluoromethoxy)-N-((2-(trifluoromethyl)pyridin-4-yl)methyl)spiro[indoline-3,4′-piperidine]-1-carboxamide]",33,3.3,288,–,–
"O=C(NCC1CCCCC1)N1CC2(CCN(C/C=C/c3ccc(Cl)c(Cl)c3)CC2)c2c1ccc1scnc21 [Example 25, (E)-N-(cyclohexylmethyl)-1-(3-(3,4-dichlorophenyl)allyl)spiro[piperidine-4,8′-thiazolo[4,5-e]indole]-6′(7′H)-carboxamide]",100,13.5,7590,–,–
"O=C(NCc1ccnc(F)c1)N1CC2(CCN(C/C=C/c3ccc(Cl)cc3)CC2)c2cc(C(F)(F)F)ccc21 [Example 82, (E)-1′-(3-(4-chlorophenyl)allyl)-N-((2-fluoropyridin-4-yl)methyl)-5-(trifluoromethyl)spiro[indoline-3,4′-piperidine]-1-carboxamide]",7.6,4.4,572,–,–
"N#Cc1ccc(/C=C/CN2CCC3(CC2)CN(C(=O)NCc2ccnc(Cl)c2)c2cc(-c4ccccc4C(F)(F)F)ccc23)cc1 [Example 96, (E)-N-((2-chloropyridin-4-yl)methyl)-1′-(3-(4-cyanophenyl)allyl)-6-(2-(trifluoromethyl)phenyl)spiro[indoline-3,4′-piperidine]-1-carboxamide]",100,5.7,25.4,–,–
"O=C(NCc1ccnc(Cl)c1)N1CC2(CCN(Cc3ccc4cc(F)ccc4c3)CC2)c2cc(Cl)ccc21 [Example 139, 5-chloro-N-((2-chloropyridin-4-yl)methyl)-1′-((6-fluoronaphthalen-2-yl)methyl)spiro[indoline-3,4′-piperidine]-1-carboxamide]",3.3,33,20.1,–,–
"Cc1nc2c3c(ccc2s1)N(C(=O)NCc1ccnc(Cl)c1)CC31CCN(C/C=C/c2ccc(Cl)cc2)CC1 [Example 43, (E)-1-(3-(4-chlorophenyl)allyl)-N-((2-chloropyridin-4-yl)methyl)-2′-methylspiro[piperidine-4,8′-thiazolo[4,5-e]indole]-6′(7′H)-carboxamide]",> 100,10,264,–,–
"N#Cc1ccc(/C=C/CN2CCC3(CC2)CN(C(=O)NCc2ccnc(Cl)c2)c2ccc(F)c(Cl)c23)cc1 [Example 157, (E)-4-chloro-N-((2-chloropyridin-4-yl)methyl)-1′-(3-(4-cyanophenyl)allyl)-5-fluorospiro[indoline-3,4′-piperidine]-1-carboxamide]",8.1,11,22.7,–,–
"O=C(NCc1ccnc(Cl)c1)N1CC2(CCN(C/C=C/c3ccc(Cl)c(Cl)c3)CC2)c2c1ccc1scnc21 [Example 40, (E)-N-((2-chloropyridin-4-yl)methyl)-1-(3-(3,4-dichlorophenyl)allyl)spiro[piperidine-4,8′-thiazolo[4,5-e]indole]-6′(7′H)-carboxamide]",4.8,5.7,110,–,–
"O=C(NCc1ccnc(Cl)c1)N1CC2(CCN(C/C=C/c3ccc(Cl)c(Cl)c3)CC2)c2c(Br)cccc21 [Example 102, (E)-4-bromo-N-((2-chloropyridin-4-yl)methyl)-1′-(3-(3,4-dichlorophenyl)allyl)spiro[indoline-3,4′-piperidine]-1-carboxamide]",5.3,10,144,–,–
"O=C(NCc1ccnc(Cl)c1)N1CC2(CCN(C/C=C/c3ccc(Cl)cc3)CC2)c2c1ccc(F)c2C(F)(F)F [Example 173, (E)-1′-(3-(4-chlorophenyl)allyl)-N-((2-chloropyridin-4-yl)methyl)-5-fluoro-4-(trifluoromethyl)spiro[indoline-3,4′-piperidine]-1-carboxamide]",100,5.7,465,–,–
"N#Cc1ccc2c(n1)C1(CCN(C/C=C/c3ccc(Cl)cc3)CC1)CN2C(=O)NCc1ccnc(Cl)c1 [Example 87, (E)-1-(3-(4-chlorophenyl)allyl)-N-((2-chloropyridin-4-yl)methyl)-5′-cyanospiro[piperidine-4,3′-pyrrolo[3,2-b]pyridine]-1′(2′H)-carboxamide]",18.2,5.7,38.1,–,–
"O=C(NCc1ccnc(Cl)c1)N1CC2(CCN(C/C=C/c3ccc(Cl)cc3)CC2)c2c(SC(F)(F)F)cccc21 [Example 89, (E)-1′-(3-(4-chlorophenyl)allyl)-N-((2-chloropyridin-4-yl)methyl)-4-(trifluoromethylthio)spiro[indoline-3,4′-piperidine]-1-carboxamide]",100,6.9,774,–,–
"O=C(NCc1ccnc(Cl)c1)N1CC2(CCN(C/C=C/c3ccc(F)cc3)CC2)c2c1ccc(F)c2Cl [Example 158, (E)-4-chloro-N-((2-chloropyridin-4-yl)methyl)-5-fluoro-1′-(3-(4-fluorophenyl)allyl)spiro[indoline-3,4′-piperidine]-1-carboxamide]",–,–,54.8,9.9,4.3
"O=C(NCc1ccnc(Cl)c1)N1CC2(CCN(C/C=C/c3ccc(F)cc3)CC2)c2c(OC(F)(F)F)cccc21 [Example 174, (E)-N-((2-chloropyridin-4-yl)methyl)-1′-(3-(4-fluorophenyl)allyl)-4-(trifluoromethoxy)spiro[indoline-3,4′-piperidine]-1-carboxamide]",100,4.4,1500,–,–
"Cn1ncc2c3c(ccc21)N(C(=O)NCc1ccnc(Cl)c1)CC31CCN(C/C=C/c2ccc(F)cc2)CC1 [Example 52, (E)-N-((2-chloropyridin-4-yl)methyl)-1-(3-(4-fluorophenyl)allyl)-3′-methyl-3′H-spiro[piperidine-4,8′-pyrrolo[3,2-e]indazole]-6′(7′H)-carboxamide]",> 100,10,778,–,–
"O=C(NCc1ccnc(Cl)c1)N1CC2(CCN(C/C=C/c3ccc(F)cc3)CC2)c2c(Cl)cc(Cl)cc21 [Example 161, (E)-4,6-dichloro-N-((2-chloropyridin-4-yl)methyl)-1′-(3-(4-fluorophenyl)allyl)spiro[indoline-3,4′-piperidine]-1-carboxamide]",10,10,259,–,–
"O=C(NCc1ccnc(Cl)c1)N1CC2(CCN(C/C=C/c3ccc(OC(F)(F)F)cc3)CC2)c2cc(OC(F)(F)F)ccc21 [Example 180, (E)-N-((2-chloropyridin-4-yl)methyl)-5-(trifluoromethoxy)-1′-(3-(4-(trifluoromethoxy)phenyl)allyl)spiro[indoline-3,4′-piperidine]-1-carboxamide]",10,10,437,–,–
"Cc1nc2c3c(ccc2s1)N(C(=O)NCc1ccnc(Cl)c1)CC31CCN(C/C=C/c2ccc(F)cc2)CC1 [Example 44, (E)-N-((2-chloropyridin-4-yl)methyl)-1-(3-(4-fluorophenyl)allyl)-2′-methylspiro[piperidine-4,8′-thiazolo[4,5-e]indole]-6′(7′H)-carboxamide]",–,–,507,> 100,10
"O=C(NCc1ccnc(Cl)c1)N1CC2(CCN(C/C=C/c3ccc(Cl)c(Cl)c3)CC2)c2cc(F)c(C(F)(F)F)cc21 [Example 129, (E)-N-((2-chloropyridin-4-yl)methyl)-1′-(3-(3,4-dichlorophenyl)allyl)-5-fluoro-6-(trifluoromethyl)spiro[indoline-3,4′-piperidine]-1-carboxamide]",–,–,32.8,1.5,10
"O=C(NCc1ccnc(Cl)c1)N1CC2(CCN(C/C=C/c3ccc(Cl)cc3)CC2)c2c(F)cc(C(F)(F)F)cc21 [Example 122, (E)-1′-(3-(4-chlorophenyl)allyl)-N-((2-chloropyridin-4-yl)methyl)-4-fluoro-6-(trifluoromethyl)spiro[indoline-3,4′-piperidine]-1-carboxamide]",–,–,32.3,0.5,10
"O=C(NCc1ccncc1)N1CC2(CCN(C/C=C/c3ccc(Cl)c(Cl)c3)CC2)c2c1ccc1scnc21 [Example 13, (E)-1-(3-(3,4-dichlorophenyl)allyl)-N-(pyridin-4-ylmethyl)spiro[piperidine-4,8′-thiazolo[4,5-e]indole]-6′(7′H)-carboxamide]",100,10,379,–,–
